“Also recorded” adds a separate entry of the source. Non-standard residues stand in square brackets, D forms with d. Residues, ends and D or L forms follow the SMILES beside them. No end group written: not given here. hCys = N[C@@H](CCS)C(=O)O
Tests used:
[1] = system: metastatic DU-145 prostate cancer cells; experiment: SU-ECM invasion assay, DU-145 cells; assay type: cell-based, human; conditions: for IC100: Homo sapiens, DU-145, read-out: concentration that completely (fully) inhibits the invasion of metastatic DU145 cells; for concentration that completely inhibits the invasion of metastatic DU145 cells: Example 10; for concentration that completely (fully) inhibits the invasion of metastatic DU145 cells: Example 11, Figure 7, molar basis; for inhibition of serum-induced invasion of DU-145 cells: Figure 4A; for inhibition of PHSRN-induced invasion of DU-145 cells: serum-free medium, 100 ng per ml PHSRN, Figure 4B
Method: (§1) Adult Strongylocentrotus purpuratus sea urchins were obtained from Pacific BioMarine, and their embryos were cultured to the early pluteus stage in artificial sea water at 15°C. SU-ECM were prepared from them by treatment with nonionic detergent and sterilized by dilution in the appropriate media.
(§2) […] When appropriate, purified bovine plasma fibronectin (Sigma, St. Louis, Mo), purified 120 kDa chymotryptic fragment (Gibco BRL), PHSRN or PHSCN peptides (synthesized at the Biomedical Research Core Facilities of the University of Michigan), or GRGDSP or GRGESP peptides (Gibco BRL) were added to the resuspended cells prior to placement of the cells on SU-ECM. In each well of a plate used for an invasion assay, SU-ECM were placed in 0.5 ml of the appropriate medium, and 0.5ml of the resuspended cells dropped on their exterior surfaces. Invasion assays were incubated 1 to 16 hours prior to scoring. If some circumstances, invasion assays were fixed in phosphate-buffered saline (PBS) with 2% formaldehyde for 5 minutes at room temperature, then rinsed into PBS.
(§3) Invasion assays were coded and scored blindly by microscopic examination under phase contrast at 200- and 400-fold magnification. Each cell contacting an SU-ECM was scored for its position relative to the exterior or interior surfaces. A cell was judged to have invaded if it was located on an interior surface below the focal plane passing through the upper surface of the SU-ECM, but above the focal plane passing through its lower surface. The minimum viability of the cells in each assay was always ascertained at the time of assay by determining the fraction of spread, adherent cells on the bottom of each well scored.
(§4) An invasion frequency is defined as the fraction of cells in contact with basement membranes which were located in their interiors at the time of assay. Thus, an invasion frequency of 1 denotes invasion by 100% of the cells in contact with basement membranes. Invasion frequencies were determined multiple times for each cell type assayed. For each type of cell assayed the mean and standard deviation of the invasion frequencies were calculated.
(§5) The method of Example 4 is employed, with the addition of varying concentrations of the PHSCN peptide.
(§6) Thus, the procedure in Example 4 provides a method for determining the inhibitory potential of the PHSCN peptide by comparing the number of cell invasions in the presence of the PHSCN peptide, with the number of cell invasions in the absence of the PHSCN peptide.
In this example, in vitro invasion of cancer cells into substrates is inhibited with peptides that have been chemically modified with protecting groups and peptides having protecting groups as well as the modification wherein an L-amino acid has been replaced with the D-isomer. PHSCN peptide, blocked PHSCN peptide, and blocked PHSCN peptide with a D-cysteine instead of the L-isomer, were tested (Figure 4A, 4B).
In this example, in vitro invasion of cancer cells into substrates is inhibited with non-peptide mimetics in comparison with chemically modified peptides (on a molar basis). The peptides of Example 10 (i.e. peptides chemically modified with protecting groups and peptides having protecting groups as well as the modification wherein an L-amino acid has been replaced with the D-isomer) were compared with the non-peptide mimetics DL-N-Acetylhomocysteinethiolactone, Thiobutyrolactone, and Mercaptopropionic acid, in order to investigate the structure activity relationship for invasion inhibition by interaction with the PHSRN-binding pocket of the α5β1 fibronectin receptor (Figure 7)

[2] = system: rat metastatic prostate carcinoma MatLyLu (MLL) cells; experiment: SU-ECM invasion assay, MatLyLu cells; assay type: cell-based; conditions: 10% FCS, Figure 5
Method: as §1
[…] When appropriate, purified bovine plasma fibronectin (Sigma, St. Louis, Mo), purified 120 kDa chymotryptic fragment (Gibco BRL), PHSRN or PHSCN peptides (synthesized at the Biomedical Research Core Facilities of the University of Michigan), or GRGDSP or GRGESP peptides (Gibco BRL) were added to the resuspended cells prior to placement of the cells on SU-ECM. […]
Invasion assays were coded and scored blindly by microscopic examination under phase contrast at 200- and 400-fold magnification. Each cell contacting an SU-ECM was scored for its position relative to the exterior or interior surfaces. […] The minimum viability of the cells in each assay was always ascertained at the time of assay by determining the fraction of spread, adherent cells on the bottom of each well scored.
An invasion frequency is defined as the fraction of cells in contact with basement membranes which were located in their interiors at the time of assay. […] Invasion frequencies were determined multiple times for each cell type assayed. […]

neonatal fibroblasts = experiment: SU-ECM invasion assay, neonatal fibroblasts; assay type: cell-based, human; conditions: in the presence (10% FCS) or absence of serum; molar concentration equivalent to plasma fibronectin in serum; Figure 9
Excerpt: In one example cells for the invasion assay are harvested by rinsing in Hanks' balanced salt solution, followed by brief treatment with 0.25% trypsin, 0.02% EDTA, and pelleting and resuspension in the appropriate medium with or without 5% FCS at a density of about 50,000 cells per ml. When appropriate, purified bovine plasma fibronectin (from Sigma, St. Louis, Mo), purified 120 kDa chymotryptic fragment (Gibco BRL) or PHSRN peptides (synthesized at the Biomedical Research Core Facilities of the University of Michigan) are added to the resuspended cells prior to placement of the cells on SU-ECM. In each well of a plate used for an invasion assay, SU-ECM were placed in 0.5 ml of the appropriate medium, and 0.5ml of the resuspended cells dropped on their exterior surfaces. Invasion assays were incubated 1 to 16 hours prior to assay. If some circumstances, invasion assays were fixed in phosphate-buffered saline (PBS) with 2% formaldehyde for 5 minutes at room temperature, then rinsed into PBS.
as §3, with “are” for “were”, “is” for “was”
An invasion frequency is defined as the fraction of cells in contact with basement membranes which are located in their interiors at the time of assay. Thus, an invasion frequency of 1 denotes invasion by 100% of the cells in contact with basement membranes. Invasion frequencies are determined multiple times for each cell type assayed. For each type of cell assayed the mean and standard deviation of the invasion frequencies were calculated.
In this example, the invasiveness of neonatal fibroblasts into an SU-ECM invasion substrate is considered. Experiments were performed under serum-free conditions, or in medium with 10% fetal calf serum (FCS). Neither serum-free medium nor medium containing serum supported fibroblast invasion. However, consistent with the induction of metalloproteinase gene transcription by the 120 kDa fragment of plasma fibronectin (pFn) containing the cell-binding domain, the 120 kDa fragment induced fibroblast invasion in the presence or in the absence of serum. […]

[3] = system: normal human prostate epithelial cells; experiment: SU-ECM invasion assay, normal prostate epithelial cells; assay type: cell-based; conditions: 10% FCS, 100 ng per ml PHSRN, Figure 4B
Method: as §1, §2, §3
(§7) An invasion frequency is defined as the fraction of cells in contact with basement membranes which were located in their interiors at the time of assay. […] Invasion frequencies were determined multiple times for each cell type assayed. For each type of cell assayed the mean and standard deviation of the invasion frequencies were calculated. […]

[4] = system: metastatic SUM-52 PE breast cancer cells; experiment: SU-ECM invasion assay, SUM-52 PE cells; assay type: cell-based, human; conditions: for inhibition of serum-induced invasion of SUM-52 PE cells: medium with 5% serum, Figure 3A; for inhibition of PHSRN-induced invasion of SUM-52 PE cells: serum free media, 100 ng per ml PHSRN, Figure 3B
Method: as §1
Cells were harvested by rinsing in Hanks balanced salt solution, followed by brief treatment with 0.25% trypsin, 0.02% EDTA, and pelleting and resuspension in the appropriate medium with or without 5% FCS at a density of about 50,000 cells per ml. When appropriate, purified bovine plasma fibronectin (Sigma, St. Louis, Mo), purified 120 kDa chymotryptic fragment (Gibco BRL), PHSRN or PHSCN peptides (synthesized at the Biomedical Research Core Facilities of the University of Michigan), or GRGDSP or GRGESP peptides (Gibco BRL) were added to the resuspended cells prior to placement of the cells on SU-ECM. In each well of a plate used for an invasion assay, SU-ECM were placed in 0.5 ml of the appropriate medium, and 0.5ml of the resuspended cells dropped on their exterior surfaces. Invasion assays were incubated 1 to 16 hours prior to scoring. If some circumstances, invasion assays were fixed in phosphate-buffered saline (PBS) with 2% formaldehyde for 5 minutes at room temperature, then rinsed into PBS.
as §3, §4, §5, §6

[5] = system: normal human mammary epithelial cells; experiment: SU-ECM invasion assay, normal mammary epithelial cells; assay type: cell-based; conditions: 10% FCS, 100 ng per ml PHSRN, Figure 3B
Method: as §1, §2, §3, §7

[6] = DU145 invasion inhibition, 10% serum

O=C1CCCS1 [Thiobutyrolactone]
fold less active than N-acetylhomocysteinethiolactone [1, 6]: 50 fold
fold less active than blocked PHSCN [1, 6]: about 500 fold
times less active than the unblocked PHSCN peptide [1, 6]: 15 times
IC100 [1]: 30 µM

NC(=O)C[C@H](NC(=O)[C@H](CCS)NC(=O)[C@H](CO)NC(=O)[C@H](Cc1c[nH]cn1)NC(=O)[C@@H]1CCCN1)C(=O)O [PHS(hC)N] (H-PHS[hCys]N-OH)
inhibition of serum-induced invasion of MLL cells ([2]; higher concentrations): completely inhibits invasion
inhibition of serum-induced invasion of MLL cells ([2]; lower concentrations): substantially inhibits invasion

CC(=O)NC1CCSC1=O (racemic) [DL-N-Acetylhomocysteinethiolactone]
fold less active than blocked PHSCN [1, 6]: about 10 fold
fold more active than the unblocked PHSCN peptide [1, 6]: about 3 fold
IC100 [1]: 0.6 µM

Ac-PHSCN-NH2 [Ac-PHSCN-NH2]
concentration that completely inhibits the invasion of metastatic DU145 cells ([1]; medium with 10% serum): approximately 1.3 ng/ml
concentration that completely (fully) inhibits the invasion of metastatic DU145 cells ([1]; medium with 10% serum): approximately 0.06 µM

CC(=O)N1CCC[C@H]1C(=O)N[C@@H](Cc1c[nH]cn1)C(=O)N[C@@H](CO)C(=O)N[C@H](CS)C(=O)N[C@@H](CC(N)=O)C(N)=O [Ac-PHS(dC)N-NH2] (Ac-PHS[dC]N-NH2)
invasion-inhibitory activity compared with Ac-PHSCN-NH2 ([1]; DU145 cells, medium with 10% serum, D-isomer of cysteine substituted): further increases the invasion-inhibitory activity; also recorded: further increases very substantially the invasion-inhibitory activity

O=C(O)CCS [Mercaptopropionic acid]
times less active in invasion inhibition than thiobutyrolactone [1, 6]: at least 100 times
times less active than the unblocked PHSCN peptide [1, 6]: ≥ 1500 times
reduction of DU145 invasion ([1]; at any of the concentrations tested, 10% serum): ≤ 20%

N=C(N)NCCC[C@H](NC(=O)CN)C(=O)NCC(=O)N[C@@H](CC(=O)O)C(=O)N[C@@H](CO)C(=O)O [GRGDS, reference compound]
induction of fibroblast invasion of SU-ECM (neonatal fibroblasts): no detectable activity

PHSCN [PHSCN]
inhibition of PHSRN-induced invasion of normal human prostate epithelial cells ([3]; higher concentrations): almost complete inhibition
inhibition of PHSRN-induced invasion of normal human prostate epithelial cells ([3]; low concentrations): substantial inhibitory affect
inhibition of serum-induced invasion of SUM-52 PE cells ([4]; relatively high concentrations): complete inhibition
inhibition of serum-induced invasion of SUM-52 PE cells ([4]; relatively low concentrations): substantial inhibitory affect
inhibition of PHSRN-induced invasion of SUM-52 PE cells ([4]; higher concentrations): almost complete inhibition
inhibition of PHSRN-induced invasion of SUM-52 PE cells ([4]; low concentrations): substantial inhibitory affect
inhibition of serum-induced invasion of DU-145 cells ([1]; 10% serum, relatively high concentrations): complete inhibition
inhibition of serum-induced invasion of DU-145 cells ([1]; 10% serum, relatively low concentrations): substantial inhibitory affect
concentration that completely inhibits the invasion of metastatic DU145 cells ([1]; medium with 10% serum): 3 ng/mL
concentration that completely (fully) inhibits the invasion of metastatic DU145 cells ([1]; medium with 10% serum): approximately 2 µM
inhibition of PHSRN-induced invasion of DU-145 cells ([1]; higher concentrations): almost complete inhibition
inhibition of PHSRN-induced invasion of DU-145 cells ([1]; low concentrations): substantial inhibitory affect
inhibition of PHSRN-induced invasion of normal human mammary epithelial cells ([5]; higher concentrations): almost complete inhibition
inhibition of PHSRN-induced invasion of normal human mammary epithelial cells ([5]; low concentrations): substantial inhibitory affect

Reference: patent publication EP1388013B1, “COMPOSITIONS AND METHODS FOR THE USE OF FIBRONECTIN FRAGMENTS IN THE DIAGNOSIS OF CANCER” (THE REGENTS OF THE UNIVERSITY OF MICHIGAN, priority 2001, dated 2002)
